Source: PubChem BioAssay (NCI)
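Five concentrations, 48 hours, 96-well plates. The concentration for 50% growth inhibition is given as GI50. TGI: total growth inhibition.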

What was measured:
Experiment in all cases: inhibition of tumour cell growth, NCI panel, 48 h
A549 NSCLC = test system: A549 NSCLC
CAKI-1 renal = test system: CAKI-1 renal
HCT-15 colon = test system: HCT-15 colon
NCI-H460 lung = test system: NCI-H460 lung
SN12C renal = test system: SN12C renal
SW-620 colon = test system: SW-620 colon
UACC-257 melanoma = test system: UACC-257 melanoma
UO-31 renal = test system: UO-31 renal
HL-60(TB) leukemia = test system: HL-60(TB) leukemia

Compound | TGI (A549 NSCLC) | TGI (CAKI-1 renal) | TGI (HCT-15 colon) | TGI (NCI-H460 lung) | TGI (SN12C renal) | TGI (SW-620 colon) | TGI (UACC-257 melanoma) | TGI (UO-31 renal) | GI50 (A549 NSCLC) | GI50 (HL-60(TB) leukemia) | TGI (HL-60(TB) leukemia) | GI50 (SW-620 colon) | GI50 (UACC-257 melanoma) | GI50 (UO-31 renal) | GI50 (CAKI-1 renal) | GI50 (HCT-15 colon) | GI50 (NCI-H460 lung) | GI50 (SN12C renal)
CS(=O)(=O)N(CCC#N)c1ccc(/C=N/NC(=O)CC(=O)Nc2cccc(Cl)c2)cc1 | > 100 µM | > 100 µM | > 100 µM | > 100 µM | > 100 µM | > 100 µM | > 100 µM | > 100 µM |  |  |  |  |  |  |  |  |  | 
COc1cc(N=Nc2ccccc2)cc(/C=N\[N-]C(N)=S)c1[O-].COc1cc(N=Nc2ccccc2)cc(/C=N\[N-]C(N)=S)c1[O-].[Fe+4] | > 100 µM |  |  |  |  | > 100 µM | > 100 µM | > 100 µM | 46.4 µM | 12.6 µM | > 100 µM | 50.2 µM | > 100 µM | 30.6 µM |  |  |  | 
C=C1C(=O)O[C@H]2[C@H]1CC/C(CNC(=O)/C=C/c1cccc(OC)c1)=C\CC[C@@]1(C)O[C@@H]21 | 20.3 µM | 2.68 µM | 2.54 µM | 7.05 µM | 4.34 µM | 2.33 µM | 2.98 µM | 2.61 µM | 5.11 µM |  |  | 0.958 µM | 1.45 µM | 1.29 µM | 1.31 µM | 1.05 µM | 2.51 µM | 1.53 µM
CNS(=O)(=O)NN(C)S(=O)(=O)c1ccc(Cl)cc1 | > 100 µM | > 100 µM | > 100 µM |  | > 100 µM | > 100 µM | > 100 µM | > 100 µM |  |  | > 100 µM |  |  |  |  |  |  | 
OCCN(CCO)c1cccc(N(CCO)CCO)c1 | > 100 µM | > 100 µM | > 100 µM | > 100 µM |  | > 100 µM | > 100 µM | 92.2 µM |  |  | > 100 µM |  |  |  |  |  |  | 
Cn1ccnc1C(c1nccn1C)C(C)(C)[N+](=O)[O-] | > 100 µM | > 100 µM | > 100 µM | > 100 µM | > 100 µM | > 100 µM | > 100 µM |  |  |  | > 100 µM |  |  |  |  |  |  | 
O=C1CCC2CCc3cccc4oc1c2c34 (configuration not stated) | > 100 µM | > 100 µM | > 100 µM | > 100 µM | > 100 µM | > 100 µM | > 100 µM |  |  |  | > 100 µM |  |  |  |  |  |  | 
CC(C)COC(=O)N1N=NC2C3OC(CC3=O)C21 (configuration not stated) |  | > 100 µM | > 100 µM | > 100 µM | > 100 µM | > 100 µM | > 100 µM | > 100 µM |  |  | > 100 µM |  |  |  |  |  |  | 
CC(=O)O[C@H]1CC[C@@]2(C)C(CC[C@]3(C)C2CC[C@]2(C)Oc4c(C)cc(O)cc4C[C@@H]23)C1(C)C (some centres not stated) | 21.2 µM | 21.8 µM | 14.9 µM | 16.5 µM |  | 5.71 µM | 22.8 µM | 14.3 µM |  |  | 14.7 µM |  |  |  |  |  |  | 
CCOC(=O)c1cc2c(n1Cc1cc(OC)cc(OC)c1)-c1oncc1CCC2 | > 100 µM | > 100 µM | > 100 µM | > 100 µM | > 100 µM | > 100 µM |  | > 100 µM | 0.112 µM | 0.0311 µM | 0.0972 µM | 0.0784 µM |  | 0.392 µM | 0.101 µM | 0.0678 µM | 0.071 µM | 0.252 µM
Oc1ccc2occ3c2c1CCC3 | > 100 µM | > 100 µM | > 100 µM | > 100 µM | > 100 µM | > 100 µM | > 100 µM |  |  |  | > 100 µM |  |  |  |  |  |  | 
O=c1[nH]c(=O)n(C2CC(O)C(CO)O2)cc1C(OCC(F)(F)F)OCC(F)(F)F (configuration not stated) | > 100 µM | > 100 µM |  | > 100 µM | > 100 µM | > 100 µM | > 100 µM | > 100 µM |  |  | > 100 µM |  |  |  |  |  |  | 
CN(C)c1ccc(/C=C/C(=O)C(C)(C)C)cc1Br | > 100 µM | 91.9 µM | 48.6 µM | > 100 µM | 76 µM | 60.2 µM | 61.9 µM | > 100 µM |  |  |  |  |  |  |  |  |  | 
CN(C)/C=C/c1nnnn1-c1ccc(Cl)cc1 | > 100 µM |  | 80 µM | 37.3 µM | 28.8 µM | 49.8 µM | > 100 µM | 84.8 µM | 30.5 µM |  |  | 10.7 µM | 35.6 µM | 23.5 µM |  | 5.04 µM | 16.9 µM | 4.69 µM
O=C(CC1(O)C(=O)Nc2ccc(Br)cc21)c1ccc(Cl)cc1 (configuration not stated) | > 100 µM |  | > 100 µM | > 100 µM | > 100 µM | > 100 µM | 98 µM | > 100 µM |  |  |  |  |  |  |  |  |  | 
NC1CCCCC1N.O=C([O-])P(=O)([O-])[O-].[Na+].[Pt+4] (configuration not stated) | > 100 µM |  |  | > 100 µM | > 100 µM | > 100 µM | > 100 µM | > 100 µM | > 100 µM | 75.9 µM | > 100 µM | 28.8 µM | > 100 µM | > 100 µM |  |  | 55.5 µM | > 100 µM
O=c1[nH]c(-c2ccccc2)nc2ccc(Cl)cc12 | > 100 µM | > 100 µM | > 100 µM |  | > 100 µM | > 100 µM | > 100 µM | > 100 µM |  |  |  |  |  |  |  |  |  | 
Cc1ccc(C(=O)O/N=C2/CCCCC2CN(C)C)cc1 (configuration not stated) | > 100 µM | > 100 µM | > 100 µM | > 100 µM | > 100 µM |  | > 100 µM | > 100 µM |  |  | > 100 µM |  |  |  |  |  |  | 
